Consider two compounds from patent US20100009967A1, “SOLID DOSAGE FORMULATIONS OF T[…]” (priority 2008, published 2010).

Series [1] has as its system CGRP. The following applies: clinical trials, Olesen et al. 2004; cited from earlier work.
Series [2] concerns CGRP. As to conditions: control group, Petersen et al. 2005; cited from earlier work.
The conditions of series [3]: 25° C./75% relative humidity.

In the case of BIBN4096BS, in series [1], the “efficacy in treating acute attacks of migraine” value was “effective in treating acute attacks of migraine”. Moreover, the “prevention of headache induced by CGRP infusion” value in series [2] is recorded as “able to prevent headache induced by CGRP infusion”. In series [3], `O=C(N[C@@H]1CC[C@@H](c2cccc(F)c2F)CN(CC(F)(F)F)C1=O)N1CCC(n2c(=O)[nH]c3ncccc32)CC1` [spray-dried amorphous form] came in with a Water content of 18%.
